Test results taken from PMC12087695, “A Phenotyping Tool for Seven Cytochrome P450 Enzymes and Two Transporters: Application to Examine the Effects of Clopidogrel and Gemfibrozil” (Clinical Pharmacology and Therapeutics, 2025).

What was measured:
[1] = Plasma pharmacokinetics of cocktail index drugs and their metabolites, five-phase crossover trial; conditions: for AUC(0-t) / AUC(0-inf) / Cmax / half-life / Tmax: human, plasma, oral; for AUC(0-t) / AUC(0-inf) / Cmax: geometric mean (geometric CV); for AUC(0-inf): AUC0-∞; for half-life: t1/2, geometric mean (geometric CV); for Tmax: median (range);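 as to all read-outs here: parameters derived from plasma drug levels quantified by LC–MS with internal standards after acetonitrile protein precipitation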
Protocol: (§1) This open‐label cross‐over clinical trial included five study phases that each participant underwent in a randomized order (Table 1 ). There was at least 2‐week washout period between different study days.
(§2) On study days, venous blood samples from all participants were drawn from forearm vein cannulas before the administration of the pretreatment drugs and 5 minutes before and 0.5, 1, 1.5, 2, 3, 4, 6, 8, 12, and 23 hours after the administration of the index drugs for determination of index drug and metabolite concentrations. […] Standardized breakfast was served 1 hour, lunch 3 hours, and snacks 7 and 9 hours after the administration of index drugs.
(§3) Prior to the analysis, the analytes were extracted from the plasma samples with simple protein precipitation. Plasma samples (50 μL) were mixed with acetonitrile solution (200 μL) containing internal standards. The samples were centrifugated and an aliquot of the supernatant was mixed with an equal volume of water before LC–MS analyses.
(§4) The flow rate was 0.3 mL/min, and the gradient program for the mobile phase B was from 20% to 90% over 7 minutes, wash at 90% 7–9.5 minutes, followed by balancing at 20% before next injection. […] The column and mobile phases were the same as above, and the gradient program for the mobile phase B was from 40% to 90% over 5 minutes, wash at 90% 5–7.3 minutes, followed by balancing at 40% before next injection. The quality control samples for each analyte at relevant concentrations were quantified with each batch of plasma samples.
(§5) Individuals with poor metabolism or transport function phenotype were excluded from respective statistical comparisons.

[2] = clinical; conditions: human; for AUC(0-inf): AUC0-∞; for Tmax: median (range); for half-life: t1/2, geometric mean (geometric CV)
Protocol: as §1, §2, §3, §4, §5

[3] = phase IV: clopidogrel 300 mg pretreatment + full cocktail
[4] = phase V: gemfibrozil 600 mg b.i.d. 3 days pretreatment + full cocktail
[5] = in vivo, AUC0-23h, geometric mean (geometric CV), phase II: Geneva cocktail
[6] = in vivo, geometric mean (geometric CV), phase II: Geneva cocktail
[7] = in vivo, phase II: Geneva cocktail
[8] = AUC0-12h, phase II: Geneva cocktail
[9] = in vivo, AUC0-23h, geometric mean (geometric CV), phase IV: clopidogrel 300 mg pretreatment + full cocktail
[10] = in vivo, AUC0-23h, geometric mean (geometric CV), phase V: gemfibrozil 600 mg b.i.d. 3 days pretreatment + full cocktail
[11] = in vivo, geometric mean (geometric CV), phase IV: clopidogrel 300 mg pretreatment + full cocktail
[12] = in vivo, geometric mean (geometric CV), phase V: gemfibrozil 600 mg b.i.d. 3 days pretreatment + full cocktail
[13] = in vivo, phase V: gemfibrozil 600 mg b.i.d. 3 days pretreatment + full cocktail
[14] = in vivo, phase IV: clopidogrel 300 mg pretreatment + full cocktail

OCc1ncc2n1-c1ccc(Cl)cc1C(c1ccccc1F)=NC2 [1’-OH-midazolam, 1′‐hydroxymidazolam]
AUC0-23h, geometric mean (geometric CV) ([1]; phase II: Geneva cocktail): 3.54 (37.4%) ng×h/mL
AUC0-∞, geometric mean (geometric CV) ([1]; phase II: Geneva cocktail): 3.75 (35.9%) ng×h/mL
Cmax, geometric mean (geometric CV) ([1]; phase II: Geneva cocktail): 1.48 (40.9%) ng/mL
Tmax, median (range) ([1]; phase II: Geneva cocktail): 1.0 (0.5-1.0) h
t1/2, geometric mean (geometric CV) ([1]; phase II: Geneva cocktail): 1.53 (35.6%) h
AUC0-23h, geometric mean (geometric CV) [1, 3]: 5.03 (42.0%) ng×h/mL
AUC0-∞, geometric mean (geometric CV) [1, 3]: 5.15 (39.8%) ng×h/mL
Cmax, geometric mean (geometric CV) [1, 3]: 2.14 (42.5%) ng/mL
Tmax, median (range) [1, 3]: 1.0 (0.5-1.0) h
t1/2, geometric mean (geometric CV) [1, 3]: 1.46 (26.6%) h
AUC0-23h, geometric mean (geometric CV) [1, 4]: 7.33 (41.1%) ng×h/mL
AUC0-∞, geometric mean (geometric CV) [1, 4]: 7.65 (36.6%) ng×h/mL
Cmax, geometric mean (geometric CV) [1, 4]: 2.83 (38.7%) ng/mL
Tmax, median (range) [1, 4]: 1.0 (0.5-1.5) h
t1/2, geometric mean (geometric CV) [1, 4]: 1.85 (28.8%) h

CC(C(=O)O)c1ccc(-c2ccc(O)cc2)c(F)c1 (stereo not shown) [4’-OH-flurbiprofen, 4′‐hydroxyflurbiprofen]
AUC(0-t) [2, 5]: 224 ng·h/mL
AUC(0-inf) [2, 6]: 263 ng·h/mL
Cmax [2, 6]: 46.4 ng/mL
Tmax [2, 7]: 1.8 h
half-life [2, 7]: 3.44 h

COc1ccc2nc([S+]([O-])Cc3ncc(CO)c(OC)c3C)[nH]c2c1 (stereo not shown) [5’-OH-omeprazole, 5′‐hydroxyomeprazole]
AUC0-23h, geometric mean (geometric CV) ([1]; phase II: Geneva cocktail): 194 (35.7%) ng×h/mL
AUC0-∞, geometric mean (geometric CV) ([1]; phase II: Geneva cocktail): 193 (36.1%) ng×h/mL
Cmax, geometric mean (geometric CV) ([1]; phase II: Geneva cocktail): 99.8 (87.9%) ng/mL
Tmax, median (range) ([1]; phase II: Geneva cocktail): 1.5 (1.0-2.0) h
t1/2, geometric mean (geometric CV) ([1]; phase II: Geneva cocktail): 1.17 (36.9%) h
AUC0-23h, geometric mean (geometric CV) [1, 3]: 213 (14.6%) ng×h/mL
AUC0-∞, geometric mean (geometric CV) [1, 3]: 212 (14.5%) ng×h/mL
Cmax, geometric mean (geometric CV) [1, 3]: 115 (23.8%) ng/mL
Tmax, median (range) [1, 3]: 1.5 (1.0-3.0) h
t1/2, geometric mean (geometric CV) [1, 3]: 1.04 (15.5%) h
AUC0-23h, geometric mean (geometric CV) [1, 4]: 253 (37.6%) ng×h/mL
AUC0-∞, geometric mean (geometric CV) [1, 4]: 253 (36.9%) ng×h/mL
Cmax, geometric mean (geometric CV) [1, 4]: 104 (76.9%) ng/mL
Tmax, median (range) [1, 4]: 1.5 (1.0-4.0) h
t1/2, geometric mean (geometric CV) [1, 4]: 1.34 (32.6%) h

CC(NC(C)(C)C)C(=O)c1cccc(Cl)c1 (stereo not shown) [Bupropion, bupropion]
AUC(0-t) [2, 5]: 76.5 ng·h/mL
AUC(0-inf) [2, 6]: 84.7 ng·h/mL
Cmax [2, 6]: 20 ng/mL
half-life [2, 7]: 7.89 h

Cn1c(=O)c2c(ncn2C)n(C)c1=O [Caffeine, caffeine]
AUC(0-t) ([2]; plasma, oral): 6270 ng·h/mL
Prolongation of t1/2 ([1]; gemfibrozil pretreatment vs control): 21%
AUC(0-t) [1, 8]: 6250 ng·h/mL
AUC(0-inf) ([1]; phase II: Geneva cocktail): 7830 ng·h/mL
Cmax ([1]; phase II: Geneva cocktail): 1130 ng/mL
half-life ([1]; phase II: Geneva cocktail): 4.65 h

COc1ccc2c(c1)[C@]13CCCC[C@@H]1[C@H](C2)N(C)CC3 [Dextromethorphan, dextromethorphan]
AUC(0-t) [2, 5]: 4.9 ng·h/mL
AUC(0-t) [2, 9]: 6.01 ng·h/mL
AUC(0-t) [2, 10]: 6.07 ng·h/mL
AUC(0-inf) [2, 6]: 5.58 ng·h/mL
AUC(0-inf) [2, 11]: 6.68 ng·h/mL
AUC(0-inf) [2, 12]: 6.82 ng·h/mL
Cmax [2, 6]: 0.745 ng/mL
Cmax [2, 11]: 0.858 ng/mL
Cmax [2, 12]: 0.898 ng/mL
Tmax [2, 13]: 2.5 h
half-life [2, 7]: 4.24 h
half-life [2, 14]: 4.61 h
half-life [2, 13]: 4.38 h
Tmax, median (range) ([1]; phase II: Geneva cocktail): 2.0 (2.0-4.0) h
Tmax, median (range) [1, 3]: 2.0 (2.0-3.0) h

CN1CC[C@@]23CCCC[C@@H]2[C@@H]1Cc1ccc(O)cc13 [Dextrorphan, dextrorphan]
AUC(0-t) [2, 5]: 8.07 ng·h/mL
AUC(0-t) [2, 9]: 9.66 ng·h/mL
AUC(0-t) [2, 10]: 17.8 ng·h/mL
AUC(0-inf) [2, 6]: 8.35 ng·h/mL
AUC(0-inf) [2, 11]: 10 ng·h/mL
AUC(0-inf) [2, 12]: 17.8 ng·h/mL
Cmax [2, 6]: 1.82 ng/mL
Cmax [2, 11]: 2.05 ng/mL
Cmax [2, 12]: 3.63 ng/mL
Tmax [2, 7]: 2 h
Tmax [2, 14]: 2 h
Tmax [2, 13]: 2 h
half-life [2, 7]: 2.5 h
half-life [2, 14]: 2.68 h
half-life [2, 13]: 2.77 h

CC(C(=O)O)c1ccc(-c2ccccc2)c(F)c1 (stereo not shown) [Flurbiprofen, flurbiprofen]
AUC(0-t) [2, 5]: 5550 ng·h/mL
AUC(0-t) [2, 9]: 5720 ng·h/mL
AUC(0-t) [2, 10]: 5770 ng·h/mL
AUC(0-inf) [2, 6]: 5910 ng·h/mL
AUC(0-inf) [2, 11]: 5940 ng·h/mL
AUC(0-inf) [2, 12]: 6080 ng·h/mL
Cmax [2, 6]: 1090 ng/mL
Cmax [2, 11]: 1180 ng/mL
Cmax [2, 12]: 1110 ng/mL
Tmax [2, 14]: 1.5 h
Tmax [2, 13]: 1.5 h
half-life [2, 7]: 4.82 h
half-life [2, 14]: 4.35 h
half-life [2, 13]: 4.61 h

C[C@H]1NC(C)(C)CO[C@]1(O)c1cccc(Cl)c1 [OH-bupropion, hydroxybupropion]
AUC0-23h, geometric mean (geometric CV) ([1]; phase II: Geneva cocktail): 571 (35.3%) ng×h/mL
AUC0-∞, geometric mean (geometric CV) ([1]; phase II: Geneva cocktail): 1200 (44.1%) ng×h/mL
Cmax, geometric mean (geometric CV) ([1]; phase II: Geneva cocktail): 36.9 (38.6%) ng/mL
Tmax, median (range) ([1]; phase II: Geneva cocktail): 3.0 (2.0-4.0) h
t1/2, geometric mean (geometric CV) ([1]; phase II: Geneva cocktail): 26.1 (40.1%) h
AUC0-23h, geometric mean (geometric CV) [1, 3]: 181 (37.6%) ng×h/mL
AUC0-∞, geometric mean (geometric CV) [1, 3]: 499 (45.3%) ng×h/mL
Cmax, geometric mean (geometric CV) [1, 3]: 10.3 (39.9%) ng/mL
Tmax, median (range) [1, 3]: 4.0 (1.5-12.0) h
t1/2, geometric mean (geometric CV) [1, 3]: 34.6 (42.9%) h
AUC0-23h, geometric mean (geometric CV) [1, 4]: 585 (43.5%) ng×h/mL
AUC0-∞, geometric mean (geometric CV) [1, 4]: 1380 (41.2%) ng×h/mL
Cmax, geometric mean (geometric CV) [1, 4]: 34.1 (44.6%) ng/mL
Tmax, median (range) [1, 4]: 6.0 (1.0-12.0) h
t1/2, geometric mean (geometric CV) [1, 4]: 29.4 (51.7%) h

COc1ccc2nc(S(=O)(=O)Cc3ncc(C)c(OC)c3C)[nH]c2c1 [Omeprazole sulfone, omeprazole sulfone]
AUC(0-t) ([1]; AUC0-23h, phase II: Geneva cocktail): 113 ng·h/mL
AUC(0-t) ([1]; AUC0-23h, phase IV: clopidogrel 300 mg pretreatment + full cocktail): 156 ng·h/mL
AUC(0-t) ([1]; AUC0-23h, phase V: gemfibrozil 600 mg b.i.d. 3 days pretreatment + full cocktail): 124 ng·h/mL
AUC(0-inf) ([1]; phase II: Geneva cocktail): 111 ng·h/mL
AUC(0-inf) [1, 3]: 154 ng·h/mL
AUC(0-inf) [1, 4]: 122 ng·h/mL
Cmax ([1]; phase II: Geneva cocktail): 35.3 ng/mL
Cmax [1, 3]: 51.2 ng/mL
Cmax [1, 4]: 41.8 ng/mL
Tmax ([1]; phase II: Geneva cocktail): 1.5 h
Tmax [1, 3]: 1.5 h
Tmax [1, 4]: 1.5 h
half-life ([1]; phase II: Geneva cocktail): 1.9 h
half-life [1, 3]: 1.88 h
half-life [1, 4]: 1.64 h

Cn1c(=O)[nH]c2ncn(C)c2c1=O [Paraxanthine, paraxanthine]
AUC(0-t) [1, 8]: 3370 ng·h/mL
AUC(0-t) ([1]; AUC0-12h, phase IV: clopidogrel 300 mg pretreatment + full cocktail): 3940 ng·h/mL
AUC(0-t) ([1]; AUC0-12h, phase V: gemfibrozil 600 mg b.i.d. 3 days pretreatment + full cocktail): 3360 ng·h/mL
AUC(0-inf) ([1]; phase II: Geneva cocktail): 7220 ng·h/mL
AUC(0-inf) [1, 3]: 8930 ng·h/mL
AUC(0-inf) [1, 4]: 9160 ng·h/mL
Cmax ([1]; phase II: Geneva cocktail): 374 ng/mL
Cmax [1, 3]: 436 ng/mL
Cmax [1, 4]: 358 ng/mL
Tmax ([1]; phase II: Geneva cocktail): 4 h
Tmax [1, 3]: 3 h
half-life ([1]; phase II: Geneva cocktail): 11 h
half-life [1, 3]: 12.8 h
half-life [1, 4]: 15.9 h
